These results are taken from publication PMC7762498, “Demethoxycurcumin analogue DMC-BH exhibits potent anticancer effects on orthotopic glioblastomas” (Aging (Albany NY), 2020).

Like-named read-outs stand apart in the source and are kept apart here.

The Cmax is the maximum level reached in the sampled fluid or tissue. One may read the Tmax as the time at which the peak concentration occurs. As a reminder, the AUC(0-t) is the area under the concentration-time curve up to a stated or last time point. Usually bioavailability stands for the share of a dose that reaches the circulation, judged against a reference dose that is usually intravenous.

A short description of data set [1]: Rat pharmacokinetic study. It is filed as in vivo, rats. Also on record: Vz_F_obs (volume of distribution): unit not given here. The settings on record: for MRT last: read-out: MRTlast (mean residence time); for half-life: read-out: T1/2 (half-life) (converted). How it is done:
Rat PK studies were performed to study whether DMC-BH is more bioavailable than did DMC.
Female Sprague-Dawley (SD) rats (n = 3) were purchased from the Shanghai Experimental Animal Center of Chinese Academy of Science (Shanghai, China). After 3 days of acclimatization, DMC-BH or DMC was administered intravenously into the jugular vein catheters at a dose of 1.00 mg/kg. After oral administration, blood samples (250 μL) were collected via jugular vein catheters at 30, 60, 90, 120, 150, 180 and 240 minutes and 8, 12 and 24 hours. Plasma samples were prepared by centrifuging the blood samples at 13,000 g for 5 minutes. All plasma samples were stored immediately at -80° C until analyzed. Analytes were extracted from 100 μL of plasma with 300 μL of acetonitrile containing 125 ng/mL of the internal standard (midazolam). The samples were thoroughly mixed and centrifuged at 8,000 g. The organic extract was added to 150 μL of 5mM NH4FA and transferred to the autosampler for LC-MS/MS analysis. Multiple reaction monitoring mode, a highly specific and sensitive label-free technique was performed by scanning the most sensitive signals. The pharmacokinetic parameters were determined using non-compartmental analysis (WinNonlin, Pharsight Corporation, Mountain View, CA, USA).

In data set [2] the test system is human glioblastoma U87-Luc cells. Description: Orthotopic glioblastoma xenograft (BLI, immunohistochemistry). It is filed as in vivo, mice. The following applies: for tumor growth (BLI): U87-Luc orthotopic xenograft, nude mice, 20 mg/kg intraperitoneal; for percentage of TUNEL-positive cells / Ki67-positive rate: orthotopic xenograft tissue, 20 mg/kg; for percentage of TUNEL-positive cells: control 3.30% ± 0.26%; for Ki67-positive rate: untreated group 36.73% ± 4.82%. The protocol:
We used orthotopic glioblastoma xenografts transplanted into mice by human glioblastoma U87-Luc cells to quantify the anti-tumor effect of DMC-BH and DMC. Tumor growth was recorded in vivo using Bioluminescent Imaging (BLI). […] The sizes of the tumors in the mice treated with DMC-BH were much smaller than those in the DMC-treated group or control group (P < 0.05) (Figure 4B). […] In addition, no significant body weight loss occurred in any of the three groups (P > 0.05) (Figure 4C).
Figure 4 The effects of DMC-BH and DMC on tumor growth in orthotopic glioblastoma xenograft models. (A) U87-Luc xenograft tumor-bearing nude mice were treated with 20 mg/kg DMC-BH, 20 mg/kg DMC or isometric saline for 18 days. The growth of orthotopic glioblastoma xenografts was monitored by BLI. (B) The sizes of orthotopic glioblastoma xenografts were measured using an IVIS spectrum image system. (C) The body weight of animals was measured after DMC-BH, DMC or isometric saline treatment.
Figure 5 The effects of DMC-BH and DMC on orthotopic glioblastoma growth were analyzed by immunohistochemical staining. (A) The orthotopic glioblastoma growth potential after treatment with 20 mg/kg DMC-BH or DMC treatment was evaluated by Ki67 immunohistochemistry. (B) The orthotopic glioblastoma apoptosis rate after treatment with 20 mg/kg DMC-BH or DMC was analyzed by TUNEL staining.
Thirty-six male nude mice weighing between approximately 18 g and 20 g and aged 6 to 8 weeks were divided into a control group, DMC group and DMC-BH group. The nude mice were handled under a laminar flow hood, and the feed, bedding, cage and contact instruments were all used after high pressure disinfection. The amplified U87-Luc cells were passaged in a 6 cm culture dish and placed in a 5% CO2 incubator. Ten percent chloral hydrate (40 μL/10 g) was used to anesthetize nude mice, and the nude mice were fixed on a stereotaxic apparatus when they were under deep anesthesia. We began to digest the U87-Luc cells once the mice were immobilized. The concentration of cells was 1 × 10^8/mL. Using a micro syringe, we slowly drew up 5 μL cells. Then 5 × 10^5 U87-Luc cells were injected into the caudate nucleus of the nude mice through an infusion of 1 μL/min. The orthotopic glioblastoma growth was quantified by BLI using an IVIS SPECTRUM 200 system (Perkin Elmer). Either DMC-BH or DMC was administered via intraperitoneal injection at a dose level of 20 mg/kg per injection. The drug administration started 10 days after intracranial implantation of U87-Luc cells, and in vivo imaging confirmed that the tumors were formed. The drug was administered continuously for 18 days. Control mice received an equivalent volume of physiologic solution each day. At day 18, all animals were sacrificed by CO2 inhalation.
Anesthetize mice with 2-3% isoflurane. Inject mice intraperitoneally with D-luciferin (150 μl of 15 mg/ml stock). Ten minutes after luciferin injection assess bioluminescent signal over an integration time of 10 and 60 s using a cooled charge-coupled device (CCD) camera (Spectrum; Caliper Life Sciences, Hopkinton, MA, USA). BLI was used to monitor tumor growth and response to therapy using the IVIS spectrum imaging system.
Following perfusion, the whole brain was immersed in 10% neutral paraformaldehyde buffer solution and fixed for 48 hours at room temperature. Routine dehydration and paraffin embedding were performed after fixation. Paraffin blocks were sliced to a thickness of 3 μm. We dewaxed tissue sections with xylene and rehydrated them through an ethanol gradient. The sections were then rinsed 2 times for 5 minutes with PBS. Incubate with 3% methanol solution of hydrogen peroxide for 20 minutes. Sections were then incubated in 5% goat serum for 10 minutes at room temperature. Serum was removed, and the sections were incubated with the first antibody at 4° C degree overnight. After PBS flushing, we added a secondary biotin-conjugated antibody. […]

The test system of another data set is p-mTOR. Description: Western blot of orthotopic xenograft tissue, p-mTOR. It is filed as in vivo, mice. The following applies: U87 orthotopic xenografts, versus control. An excerpt:
The PI3K/Akt/mTOR signaling pathway is over activated in glioma tissues, and this increased activation is closely related to malignancy and chemoresistance of gliomas. Previous research reported that among its potential anti-tumor actions in breast cancer, DMC targeted multiple AMPK downstream pathways involving dephosphorylation of Akt and mTOR inhibition. Because DMC-BH is a DMC derivative, we further investigated the inhibitory effects of DMC-BH on gliomas by targeting the Akt/mTOR signaling pathway. We evaluated the expression of p-Akt, and p-mTOR in tumor tissues after DMC-BH treatment (Figure 6A). […] No significant changes were found in total Akt and mTOR expression. Moreover, the expression of p-Akt and p-mTOR in the DMC group was decreased with that in the control group (P < 0.05).
Figure 6 The effects of DMC-BH and DMC on the Akt/mTOR signaling pathway in U87 orthotopic glioblastoma xenografts. (A) Total protein was extracted from U87 orthotopic glioblastoma xenografts. Then p-Akt and p-mTOR protein expression was detected by Western blot. (B) The column chart illustrates the relative expression levels of these proteins.
A general note: A western blot detects proteins with antibodies after separation by electrophoresis.

[3] abbreviates: female, Sprague-Dawley, plasma, iv, 1.00 mg/kg.
The mark [4] stands for this setting: female, Sprague-Dawley, plasma, po, i.g., 10.0 mg/kg.

“Demethoxycurcumin [DMC, reference compound]”: in data set [1] (i.g. 10.0 mg/kg versus i.v. 1.00 mg/kg), the “F (percent oral bioavailability)” value was 8.3%. Also, in data set [1] (i.g., 10.0 mg/kg), the AUClast stood at 620 ± 271 ng·h/mL, the Cl F obs (plasma clearance rate) was 12.8 ± 1.63 mL/min/kg, the Cmax was found to be 216 ± 46 ng/mL and the “MRTlast (mean residence time)” value was determined as 3.12 ± 0.45 h. In addition, in data set [1] (i.g., 10.0 mg/kg), the “T1/2 (half-life)” value is on record as 4.32 ± 1.98 h, the Tmax was 0.67 ± 0.12 h and the “Vz_F_obs (volume of distribution)” value turned out to be 6543 ± 687. Moreover, in data set [1] (i.v., 1.00 mg/kg), the AUClast came to 742 ± 254 ng·h/mL, the Cl F obs (plasma clearance rate) was 21.6 ± 3.67 mL/min/kg, the Cmax came to 754 ± 275 ng/mL and the “MRTlast (mean residence time)” value came to 1.32 ± 0.29 h. In data set [1] (i.v., 1.00 mg/kg), the “T1/2 (half-life)” value is 1.24 ± 0.21 h, the Tmax worked out at 0.08 ± 0.00 h and the “Vz_F_obs (volume of distribution)” value is reported as 5421 ± 432. Further, in data set [2], the “tumor growth (BLI)” value was “slight but significant tumor inhibitory effects”, the “percentage of TUNEL-positive cells” value is reported as 3.33% ± 0.31% and the Ki67-positive rate was 22.17% ± 5.10%. Besides, the “p-mTOR expression in tumor tissues” value with p-mTOR is on record as “decreased”.

As for `COc1cc(C=CC(=O)CC(=O)C=Cc2ccc(O)c(CN3CCCC3)c2)ccc1O` [DMC-BH, 1-[4-Hydroxy-3-(pyrrolidin-1-ylmethyl)phenyl]-7-(4-hydroxy-3-methoxyphenyl) hepta-1,6-diene-3,5-dione], in data set [1] (setting [3]), the AUC(0-t) is 634 ± 127 ng·h/mL, the MRT last amounted to 1.85 ± 0.21 h and the half-life is 2.54 ± 0.23 h. For the same compound, the Cmax in data set [1] (female, Sprague-Dawley, plasma, iv, 1.00 mg/kg, read-out: Cmax) was found to be 938 ± 231 ng/mL. The Tmax in data set [1] (female, Sprague-Dawley, plasma, iv, 1.00 mg/kg, read-out: Tmax) was found to be 0.08 h. In data set [1] (female, Sprague-Dawley, plasma, iv, 1.00 mg/kg, read-out: Vz_F_obs (volume of distribution)), the Vd is 4.9 ± 0.783 L/kg. Moreover, the bioavailability in data set [1] (female, Sprague-Dawley, plasma, oral, i.g. 10.0 mg/kg versus i.v. 1.00 mg/kg, read-out: F (percent oral bioavailability)) came out at 57.1%. Further, in data set [1] (setting [4]), the exposure AUC(0-t) was 3620 ± 623 ng·h/mL, the MRT last amounted to 4.21 ± 0.16 h and the half-life was 7.82 ± 1.54 h. Moreover, the CL/F in data set [1] (female, Sprague-Dawley, plasma, po, i.g., 10.0 mg/kg, read-out: Cl_F_obs (plasma clearance rate) (converted)) was 113 mL/min/kg. Also, the Cmax in data set [1] (female, Sprague-Dawley, plasma, po, i.g., 10.0 mg/kg, read-out: Cmax) was found to be 1260 ± 385 ng/mL. The Tmax in data set [1] (female, Sprague-Dawley, plasma, po, i.g., 10.0 mg/kg, read-out: Tmax) was 1.45 ± 0.35 h. For the same compound, in data set [1] (female, Sprague-Dawley, plasma, po, i.g., 10.0 mg/kg, read-out: Vz_F_obs (volume of distribution)), the Vd/F is 54.4 ± 19.1 L/kg. The same compound returned a Cl F obs (plasma clearance rate) in data set [1] (i.v., 1.00 mg/kg) of 24.6 ± 4.28 mL/min/kg. Moreover, in data set [1] (oral), the “increased exposure (AUC) when administered orally compared to DMC” value is listed as “approximately 6 fold”. In data set [2], the “tumor growth (BLI)” value is on record as “much greater tumor suppressive effects”, the “percentage of TUNEL-positive cells” value is 28.68% ± 5.15% and the Ki67-positive rate is recorded as 6.38% ± 1.38%. The “p-mTOR expression in tumor tissues” value in the data set with p-mTOR is “significantly decreased”.
